Residue numbers refer to the chain shown, from its start. Values belong to the molecule of their own block, whether it stands above or below them.
What was measured:
[1] = target: T1, hPXR (Homo sapiens, UniProt O75469); test: CYP3A4 promoter luciferase reporter assay in HepG2 cells; settings: HepG2, LS180 and LS174T cells, 24 h
T1 sequence (O75469 1-434): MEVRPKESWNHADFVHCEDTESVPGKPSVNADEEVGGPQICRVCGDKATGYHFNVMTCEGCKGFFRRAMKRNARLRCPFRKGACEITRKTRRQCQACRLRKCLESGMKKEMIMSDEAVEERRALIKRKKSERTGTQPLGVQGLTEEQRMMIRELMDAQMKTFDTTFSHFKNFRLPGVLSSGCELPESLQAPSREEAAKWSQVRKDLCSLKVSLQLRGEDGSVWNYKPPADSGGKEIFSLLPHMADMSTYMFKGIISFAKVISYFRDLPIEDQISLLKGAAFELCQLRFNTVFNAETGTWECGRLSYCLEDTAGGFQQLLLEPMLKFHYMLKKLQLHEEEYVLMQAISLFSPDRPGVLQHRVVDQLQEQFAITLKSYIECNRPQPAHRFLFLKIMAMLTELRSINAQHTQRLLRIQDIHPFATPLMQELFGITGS

[2] = tested on: hPXR mutants; assay type: cell-based, human; settings: 21 alanine mutants, various MET concentrations, HepG2
[3] = target: T1, hPXR; settings: HEK293T cells, 24 h; for PXR activation in the screen: 28 μM
[4] = target: T2, hPXR R410A mutant (CYP3A4 promoter) (Homo sapiens, UniProt O75469, R410A); test: CYP3A4 promoter luciferase reporter assay in HepG2 cells, hPXR mutant R410A; assay type: cell-based; settings: human
T2 sequence (O75469 1-434 R410A): T1 sequence (O75469 1-434) with R410A

[5] = target: T3, hPXR R410A (Homo sapiens, UniProt O75469, R410A); test: as above; assay type: cell-based; settings: HepG2, 24 h, relative luciferase units (a.u.), DMSO 3.28
T3 sequence (O75469 1-434 R410A): T1 sequence (O75469 1-434) with R410A

[6] = target: T4, hPXR ligand-binding domain (Homo sapiens, UniProt O75469); test: LanthaScreen TR-FRET PXR competitive ligand-binding assay; settings: 1.75 μM, compared with vehicle control
T4 sequence (O75469 146-433 limits assumed): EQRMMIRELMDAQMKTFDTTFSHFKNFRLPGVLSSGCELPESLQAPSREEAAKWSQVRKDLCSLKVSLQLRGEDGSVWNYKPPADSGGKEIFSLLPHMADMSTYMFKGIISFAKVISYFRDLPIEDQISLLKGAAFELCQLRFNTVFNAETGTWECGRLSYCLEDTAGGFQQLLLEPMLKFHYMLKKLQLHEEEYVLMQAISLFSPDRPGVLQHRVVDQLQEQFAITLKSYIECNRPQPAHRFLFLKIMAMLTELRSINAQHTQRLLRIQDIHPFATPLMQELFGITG

[7] = tested on: human carbonic anhydrase isoforms I and III; settings: ref [31]; cited from earlier work
[8] = tested on: CYP3A4 and MDR1 expression; test: CYP3A4 and MDR1 expression in LS180 and LS174T intestine cells; assay type: cell-based, human; settings: Western blot
[9] = tested on: human carbonic anhydrase isoforms VII, XII, and XIII; settings: ref [31]; cited from earlier work
[10] = target: hPXR and SRC-1 interaction (Homo sapiens, UniProt O75469); test: Mammalian two-hybrid assay in HepG2 cells; assay type: cell-based; settings: 24 h, 5 μM rifampicin, 5, 10 or 20 μM MET
Chain of hPXR and SRC-1 interaction (Q15788 whole entry partner, one chain of several): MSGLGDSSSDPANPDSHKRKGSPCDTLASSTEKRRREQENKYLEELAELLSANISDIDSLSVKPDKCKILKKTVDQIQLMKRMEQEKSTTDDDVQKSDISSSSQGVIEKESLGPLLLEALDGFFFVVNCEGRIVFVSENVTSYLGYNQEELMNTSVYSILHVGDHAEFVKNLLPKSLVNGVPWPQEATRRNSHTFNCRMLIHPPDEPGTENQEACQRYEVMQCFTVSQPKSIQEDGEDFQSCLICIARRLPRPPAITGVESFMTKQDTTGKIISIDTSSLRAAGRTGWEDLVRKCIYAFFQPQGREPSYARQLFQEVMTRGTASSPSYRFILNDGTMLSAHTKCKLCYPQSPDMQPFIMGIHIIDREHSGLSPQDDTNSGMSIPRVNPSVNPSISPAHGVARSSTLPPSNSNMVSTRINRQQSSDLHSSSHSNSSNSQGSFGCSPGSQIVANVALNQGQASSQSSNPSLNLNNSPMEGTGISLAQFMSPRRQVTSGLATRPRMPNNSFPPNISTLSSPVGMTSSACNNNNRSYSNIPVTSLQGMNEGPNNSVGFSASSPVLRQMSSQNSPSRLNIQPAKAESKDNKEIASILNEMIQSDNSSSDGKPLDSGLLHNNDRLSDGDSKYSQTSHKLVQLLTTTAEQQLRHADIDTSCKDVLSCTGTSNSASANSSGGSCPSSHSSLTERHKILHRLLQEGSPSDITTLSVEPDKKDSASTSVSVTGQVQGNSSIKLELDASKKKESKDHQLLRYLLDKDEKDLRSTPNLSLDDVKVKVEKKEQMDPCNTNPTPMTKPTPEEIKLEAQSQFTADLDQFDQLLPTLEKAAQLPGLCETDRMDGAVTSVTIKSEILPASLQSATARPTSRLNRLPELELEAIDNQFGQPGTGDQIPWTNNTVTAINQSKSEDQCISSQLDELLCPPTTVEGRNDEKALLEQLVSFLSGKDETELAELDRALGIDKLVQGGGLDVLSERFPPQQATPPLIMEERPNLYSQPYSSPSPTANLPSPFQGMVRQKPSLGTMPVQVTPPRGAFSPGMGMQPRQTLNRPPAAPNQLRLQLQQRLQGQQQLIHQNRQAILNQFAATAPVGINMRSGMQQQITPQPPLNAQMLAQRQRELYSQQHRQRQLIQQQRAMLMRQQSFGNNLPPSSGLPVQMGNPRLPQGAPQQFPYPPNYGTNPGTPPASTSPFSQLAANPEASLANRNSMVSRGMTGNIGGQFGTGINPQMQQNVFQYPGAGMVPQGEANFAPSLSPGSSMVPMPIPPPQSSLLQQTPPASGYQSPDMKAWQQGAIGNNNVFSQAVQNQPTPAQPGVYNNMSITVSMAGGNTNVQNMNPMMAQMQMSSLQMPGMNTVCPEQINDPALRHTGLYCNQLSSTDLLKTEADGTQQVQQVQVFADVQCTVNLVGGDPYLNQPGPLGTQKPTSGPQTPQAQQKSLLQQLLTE

[11] = tested on: CYP3A4 and MDR1 expression; test: CYP3A4 and MDR1 expression in human primary hepatocytes; assay type: cell-based; settings: 48-h treatment, two donors
[12] = target: T5, wild-type hPXR (Homo sapiens, UniProt O75469); test: CYP3A4 promoter luciferase reporter assay in HepG2 cells, wild-type hPXR; assay type: cell-based; settings: HepG2, 24 h, relative luciferase units (a.u.), DMSO 0.40
T5 sequence (O75469 1-434): T1 sequence (O75469 1-434)

[13] = target: T6, wild-type hPXR (CYP3A4 promoter) (Homo sapiens, UniProt O75469); test: as above; assay type: cell-based; settings: human
T6 sequence (O75469 1-434): T1 sequence (O75469 1-434)

[14] = tested on: HepG2, LS180, and LS174T cells; test: Cell viability assay; assay type: cell-based, human; settings: 1.7 nM to 56 μM

SMILES: Cc1ccccc1N1C(=O)c2cc(S(N)(=O)=O)c(Cl)cc2NC1C (centres unmarked) [Metolazone]
activation of PXR-regulated CYP3A4 promoter activity [1]: activator of PXR activity
CYP3A4 promoter activity with hPXR mutants [2]: increased CYP3A4 promoter activity substantially for all PXR mutants except L240A, F281A, and F420A
activation of the CYP3A4-luc reporter ([3]; final compound concentration 28 μM, DMSO set as 0% and rifampicin at 5 μM set as 100%): 182%
fold induction at 24 h, 10 μM [4]: 1.96
fold induction at 24 h, 20 μM [4]: 1.5
CYP3A4 promoter activity ([5]; 10 μM MET): 6.43
CYP3A4 promoter activity ([5]; 20 μM MET): 4.92
tracer binding to hPXR-LBD [6]: decreased tracer binding to hPXR-LBD substantially
inhibition of carbonic anhydrase [7]: weak inhibitor
CYP3A4 and MDR1 protein expression [8]: induced CYP3A4 and MDR1 protein expression
inhibition of carbonic anhydrase [9]: very potent
interaction between hPXR and SRC-1 [10]: substantially increased the interaction between hPXR and SRC-1
expression of CYP3A4 and MDR1 mRNA and protein [11]: induced the expression of CYP3A4 and MDR1 mRNA and protein
CYP3A4 promoter activity ([12]; 10 μM MET): 3.93
CYP3A4 promoter activity ([12]; 20 μM MET): 4.22
fold induction at 24 h, 10 μM [13]: 9.83
fold induction at 24 h, 20 μM [13]: 10.6
cytotoxicity [14]: not significantly cytotoxic even at high concentration

SMILES: NS(=O)(=O)c1cc2c(cc1Cl)NC(C1CC3C=CC1C3)NS2(=O)=O (centres unmarked) [cyclothiazide]
activation of PXR-regulated CYP3A4 promoter activity [1]: does not activate PXR

SMILES: Cc1cccc(C)c1NC(=O)c1cc(S(N)(=O)=O)c(Cl)cc1O [xipamide]
activation of PXR-regulated CYP3A4 promoter activity [1]: does not possess PXR-activating activity

SMILES: CC(C)(O)c1ccccc1CC[C@@H](SCC1(CC(=O)O)CC1)c1cccc(/C=C/c2ccc3ccc(Cl)cc3n2)c1 [montelukast]
PXR activation in the screen [3]: PXR activation

SMILES: NS(=O)(=O)c1cc2c(cc1Cl)NCNS2(=O)=O [hydrochlorothiazide]
activation of PXR-regulated CYP3A4 promoter activity [1]: inactive

SMILES: O=C1Nc2ccc(Cl)cc2[C@@](C#CC2CC2)(C(F)(F)F)O1 [efavirenz]
PXR activation in the screen [3]: PXR activation

Other lines, results leading:

activation of PXR-regulated CYP3A4 promoter activity [1]: inactive
SMILES: NS(=O)(=O)c1cc2c(cc1C(F)(F)F)NC(Cc1ccccc1)NS2(=O)=O (centres unmarked) [bendroflumethiazide]

PXR activation in the screen [3]: PXR activation
SMILES: CCCCC1C(=O)N(c2ccccc2)N(c2ccccc2)C1=O [phenylbutazone]

activation of PXR-regulated CYP3A4 promoter activity [1]: inactive
SMILES: NS(=O)(=O)c1cc2c(cc1Cl)N=C(CSCc1ccccc1)NS2(=O)=O [benzthiazide]
